Test results taken from ChEMBL document CHEMBL1201862, “PubChem BioAssay data set” (2004).
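Five concentrations, 48 hours, 96-well plates. GI50 is the concentration that inhibits growth by half.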 Activity calls are given as the source filed them. Rule as the data show it: active = GI50 up to about 1.1 µM and inactive = higher. Where a SMILES comes first, the peptide text is derived from it. The star is where a group is joined. Boc = CC(C)(C)OC(=O)*

What was measured:
Test in all cases: growth of human tumour cells (NCI), 48 h
[1] = tested on: LOX IMVI
[2] = tested on: COLO 205
[3] = tested on: HOP-92
[4] = tested on: OVCAR-8
[5] = tested on: KM12
[6] = tested on: A498
[7] = tested on: HL-60
[8] = tested on: SK-MEL-5
[9] = tested on: SK-OV-3
[10] = tested on: MDA-MB-435
[11] = tested on: NCI-H226
[12] = tested on: OVCAR-5
[13] = tested on: CAKI-1
[14] = tested on: OVCAR-4
[15] = tested on: SNB-19
[16] = tested on: SNB-75
[17] = tested on: SN12C
[18] = tested on: DU-145
[19] = tested on: HCC 2998

| Compound | GI50 [1] | GI50 [2] | GI50 [3] | GI50 [4] | GI50 [5] | GI50 [6] | GI50 [7] | GI50 [8] | GI50 [9] | GI50 [10] | GI50 [11] | GI50 [12] | GI50 [13] | GI50 [14] | GI50 [15] | GI50 [16] | GI50 [17] | GI50 [18] | GI50 [19] |
| --- | --- | --- | --- | --- | --- | --- | --- | --- | --- | --- | --- | --- | --- | --- | --- | --- | --- | --- | --- |
| OCC(O)C(O)C(C=NNc1ncnc2ccc(Br)cc12)=NNc1ncnc2ccc(Br)cc12 (stereo unspecified) | 0.991 µM (active) | 0.366 µM (active) | 4.3 µM (inactive) | 1.72 µM (inactive) | 5.7 µM (inactive) | 26 µM (inactive) | 0.325 µM (active) | 1.22 µM (inactive) | 2.59 µM (inactive) | 4.79 µM (inactive) | 2.12 µM (inactive) | 5.13 µM (inactive) | 2.22 µM (inactive) | 0.435 µM (active) | 6.04 µM (inactive) | 5.82 µM (inactive) | 6.84 µM (inactive) | – | – |
| O=c1[nH]c(=O)n(C2CC(O)C(CO)O2)cc1Oc1ccccc1 (stereo unspecified) | > 100 µM (inactive) | > 100 µM (inactive) | – | > 100 µM (inactive) | > 100 µM (inactive) | – | > 100 µM (inactive) | > 100 µM (inactive) | > 100 µM (inactive) | > 100 µM (inactive) | > 100 µM (inactive) | > 100 µM (inactive) | > 100 µM (inactive) | > 100 µM (inactive) | > 100 µM (inactive) | > 100 µM (inactive) | > 100 µM (inactive) | > 100 µM (inactive) | – |
| CCCCCCC(C)CC(CCCCCC)NCCOC(=O)c1ccc([N+](=O)[O-])cc1 (stereo unspecified) | 7.4 µM (inactive) | 2.17 µM (inactive) | 10.1 µM (inactive) | 10.2 µM (inactive) | 14.1 µM (inactive) | – | – | 14.3 µM (inactive) | 16.3 µM (inactive) | – | 14.1 µM (inactive) | 31.2 µM (inactive) | – | 11.7 µM (inactive) | 15.9 µM (inactive) | 14.4 µM (inactive) | 12.4 µM (inactive) | 15.6 µM (inactive) | 3.72 µM (inactive) |
| O=C(N/C(=C\c1ccc([N+](=O)[O-])cc1)c1nc2ccccc2[nH]1)c1ccccc1 | – | > 100 µM (inactive) | 45.6 µM (inactive) | > 100 µM (inactive) | > 100 µM (inactive) | > 100 µM (inactive) | 70.6 µM (inactive) | 86.9 µM (inactive) | – | – | – | > 100 µM (inactive) | – | > 100 µM (inactive) | > 100 µM (inactive) | – | > 100 µM (inactive) | – | > 100 µM (inactive) |
| Cn1c(=O)c2[nH]c(N=O)nc2n(C)c1=O | > 100 µM (inactive) | > 100 µM (inactive) | – | > 100 µM (inactive) | > 100 µM (inactive) | > 100 µM (inactive) | > 100 µM (inactive) | – | > 100 µM (inactive) | > 100 µM (inactive) | > 100 µM (inactive) | > 100 µM (inactive) | > 100 µM (inactive) | > 100 µM (inactive) | – | > 100 µM (inactive) | > 100 µM (inactive) | > 100 µM (inactive) | > 100 µM (inactive) |
| COC(=O)C(Cc1c[nH]c2ccccc12)NC(=O)C(Cc1c[nH]c2ccccc12)NC(=O)C(Cc1c[nH]c2ccccc12)NC(=O)C(Cc1c[nH]c2ccccc12)NC(=O)C(Cc1c[nH]c2ccccc12)NC(=O)C(Cc1c[nH]c2ccccc12)NC(=O)C(Cc1c[nH]c2ccccc12)NC(=O)OC(C)(C)C (stereo unspecified) (Boc-WWWWWWW-OMe; configuration not given here) | 84.9 µM (inactive) | – | – | > 100 µM (inactive) | – | – | 41.7 µM (inactive) | 20.9 µM (inactive) | – | > 100 µM (inactive) | 40.9 µM (inactive) | 42.4 µM (inactive) | > 100 µM (inactive) | > 100 µM (inactive) | 47.8 µM (inactive) | 17.3 µM (inactive) | 62.2 µM (inactive) | 64 µM (inactive) | > 100 µM (inactive) |
| COc1ccc2cc(C(=O)Nc3ccc(O)c(C(=O)O)c3)ccc2c1OC | > 100 µM (inactive) | – | – | > 100 µM (inactive) | > 100 µM (inactive) | – | > 100 µM (inactive) | > 100 µM (inactive) | > 100 µM (inactive) | > 100 µM (inactive) | > 100 µM (inactive) | > 100 µM (inactive) | > 100 µM (inactive) | 72.6 µM (inactive) | > 100 µM (inactive) | > 100 µM (inactive) | > 100 µM (inactive) | > 100 µM (inactive) | > 100 µM (inactive) |
| COc1ccccc1-c1cc(O)c2ccc(C)nc2n1 | > 100 µM (inactive) | 54.1 µM (inactive) | 32.8 µM (inactive) | > 100 µM (inactive) | 42.6 µM (inactive) | > 100 µM (inactive) | – | – | > 100 µM (inactive) | – | > 100 µM (inactive) | > 100 µM (inactive) | > 100 µM (inactive) | > 100 µM (inactive) | > 100 µM (inactive) | – | > 100 µM (inactive) | > 100 µM (inactive) | > 100 µM (inactive) |
| Cn1c(N)cc(=O)nc1N | > 100 µM (inactive) | > 100 µM (inactive) | – | > 100 µM (inactive) | > 100 µM (inactive) | > 100 µM (inactive) | > 100 µM (inactive) | > 100 µM (inactive) | > 100 µM (inactive) | > 100 µM (inactive) | > 100 µM (inactive) | > 100 µM (inactive) | > 100 µM (inactive) | > 100 µM (inactive) | > 100 µM (inactive) | > 100 µM (inactive) | > 100 µM (inactive) | > 100 µM (inactive) | > 100 µM (inactive) |
| O=C(O)c1nn[nH]c1Cl | > 100 µM (inactive) | > 100 µM (inactive) | – | > 100 µM (inactive) | > 100 µM (inactive) | > 100 µM (inactive) | > 100 µM (inactive) | > 100 µM (inactive) | > 100 µM (inactive) | > 100 µM (inactive) | > 100 µM (inactive) | > 100 µM (inactive) | – | > 100 µM (inactive) | – | > 100 µM (inactive) | > 100 µM (inactive) | > 100 µM (inactive) | > 100 µM (inactive) |
| CC1CC/C(=C\c2ccc(F)cc2)C(=O)/C1=C/c1ccc(F)cc1 (stereo unspecified) | 2.77 µM (inactive) | 5.77 µM (inactive) | – | 2.7 µM (inactive) | 2.97 µM (inactive) | 12.6 µM (inactive) | 3.08 µM (inactive) | 4.57 µM (inactive) | 17.4 µM (inactive) | 4.69 µM (inactive) | 7.03 µM (inactive) | 4.13 µM (inactive) | 3.85 µM (inactive) | – | 10.1 µM (inactive) | 2.04 µM (inactive) | 3.22 µM (inactive) | 4.07 µM (inactive) | – |
| Oc1ccc(-c2nc(-c3cccnc3)c(-c3ccc(Cl)cc3)[nH]2)cc1 | 6.89 µM (inactive) | 10.3 µM (inactive) | – | 14.8 µM (inactive) | 11.9 µM (inactive) | – | 6.95 µM (inactive) | 12.1 µM (inactive) | 13.6 µM (inactive) | 12.3 µM (inactive) | 18.8 µM (inactive) | 19.3 µM (inactive) | 17.9 µM (inactive) | 11.2 µM (inactive) | 16.5 µM (inactive) | 7.46 µM (inactive) | 15.8 µM (inactive) | 14.3 µM (inactive) | 18.8 µM (inactive) |
| Cn1c(=O)oc2cc(C(=S)N3CCC(Cc4ccccc4)CC3)ccc21 | > 100 µM (inactive) | > 100 µM (inactive) | – | > 100 µM (inactive) | > 100 µM (inactive) | > 100 µM (inactive) | > 100 µM (inactive) | 51.4 µM (inactive) | > 100 µM (inactive) | 91.8 µM (inactive) | > 100 µM (inactive) | > 100 µM (inactive) | > 100 µM (inactive) | – | > 100 µM (inactive) | 55.6 µM (inactive) | > 100 µM (inactive) | > 100 µM (inactive) | – |
| N=C(N)c1ccc(C(NC(=O)CNS(=O)(=O)c2ccc3ccccc3c2)P(=O)(Oc2ccccc2)Oc2ccccc2)cc1 (stereo unspecified) | 28.1 µM (inactive) | > 100 µM (inactive) | 29.6 µM (inactive) | > 100 µM (inactive) | 47.4 µM (inactive) | – | 14.2 µM (inactive) | 39.1 µM (inactive) | 61.9 µM (inactive) | 35.6 µM (inactive) | 17.7 µM (inactive) | 32.6 µM (inactive) | 67.5 µM (inactive) | > 100 µM (inactive) | 47 µM (inactive) | 27 µM (inactive) | 27.7 µM (inactive) | > 100 µM (inactive) | > 100 µM (inactive) |
| COc1ccc(N2C(=O)C3c4[nH]c5c(C)cccc5c4C4CCC(C(C)(C)C)CC4C3C2=O)cc1 (stereo unspecified) | 2.16 µM (inactive) | 5.97 µM (inactive) | – | > 10 µM (inactive) | 5.13 µM (inactive) | > 10 µM (inactive) | 3.3 µM (inactive) | > 10 µM (inactive) | > 10 µM (inactive) | > 10 µM (inactive) | > 10 µM (inactive) | > 10 µM (inactive) | > 10 µM (inactive) | > 10 µM (inactive) | > 10 µM (inactive) | > 10 µM (inactive) | 8.79 µM (inactive) | > 10 µM (inactive) | 2.48 µM (inactive) |
| Cc1nnc2n1N=C(c1cc(F)c(Cl)cc1Cl)/C(=C/c1ccc(-c3ccc([N+](=O)[O-])cc3)o1)S2 | 33.2 µM (inactive) | 65.9 µM (inactive) | > 100 µM (inactive) | 35.7 µM (inactive) | 69.2 µM (inactive) | > 100 µM (inactive) | 46.3 µM (inactive) | 56.9 µM (inactive) | > 100 µM (inactive) | 50.4 µM (inactive) | – | > 100 µM (inactive) | > 100 µM (inactive) | 66.5 µM (inactive) | > 100 µM (inactive) | – | 35.3 µM (inactive) | – | > 100 µM (inactive) |
